Common to all, as to assay: biochemical
Holding throughout (assay type): binding

Experiment [1] concerns the target T1, GADS (Homo sapiens, UniProt O75791).
T1 construct: the DNA-tagged SH2 domain concentrations used in this study were <0.1 nM; made in house; host or cells: HEK293 (transient transfection; unpurified extract)
T1 sequence (O75791 58-149 limits assumed): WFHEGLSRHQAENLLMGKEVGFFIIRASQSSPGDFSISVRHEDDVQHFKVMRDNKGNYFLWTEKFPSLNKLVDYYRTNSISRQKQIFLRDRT
To be noted: for remaining activity at 10 µM: primary screen.

Experiment [2] deals with T2, SHF (Homo sapiens, UniProt Q7M4L6).
T2 construct: made in house; host or cells: HEK293 (transient transfection), unpurified extract
T2 sequence (Q7M4L6 1-423): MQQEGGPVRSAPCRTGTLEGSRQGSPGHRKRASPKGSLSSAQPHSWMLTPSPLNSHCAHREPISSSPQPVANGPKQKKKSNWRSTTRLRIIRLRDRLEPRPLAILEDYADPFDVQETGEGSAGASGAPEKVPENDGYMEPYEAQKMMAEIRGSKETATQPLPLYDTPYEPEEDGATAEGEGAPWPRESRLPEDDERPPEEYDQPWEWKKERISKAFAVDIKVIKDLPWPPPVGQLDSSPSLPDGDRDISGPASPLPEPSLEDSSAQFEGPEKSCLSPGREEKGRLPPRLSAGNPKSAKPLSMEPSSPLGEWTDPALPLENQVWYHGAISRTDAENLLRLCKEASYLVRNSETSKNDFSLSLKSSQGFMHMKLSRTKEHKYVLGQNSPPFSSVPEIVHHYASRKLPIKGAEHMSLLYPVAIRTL
To be noted: for remaining activity at 10 µM: read-out: percent of DMSO vehicle control.

The target in experiment [3] is T3, PIK3R2(SH2dom.C-term.) (Homo sapiens, UniProt O00459).
T3 construct: SH2dom.C-term. denotes SH2 domain closest to C-terminus of protein; made in house; host or cells: HEK293 (transient transfection, unpurified extract)
T3 sequence (O00459 622-716 limits assumed): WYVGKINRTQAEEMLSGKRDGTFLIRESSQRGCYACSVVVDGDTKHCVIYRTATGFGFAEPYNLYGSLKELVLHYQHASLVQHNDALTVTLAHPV
To be noted: for remaining activity at 10 µM: read-out: percent of DMSO vehicle control.

The target of experiment [4] is T4, SHB (Homo sapiens, UniProt Q15464).
T4 construct: made in house; host or cells: HEK293 (transient transfection), unpurified extract
T4 sequence (Q15464 whole entry): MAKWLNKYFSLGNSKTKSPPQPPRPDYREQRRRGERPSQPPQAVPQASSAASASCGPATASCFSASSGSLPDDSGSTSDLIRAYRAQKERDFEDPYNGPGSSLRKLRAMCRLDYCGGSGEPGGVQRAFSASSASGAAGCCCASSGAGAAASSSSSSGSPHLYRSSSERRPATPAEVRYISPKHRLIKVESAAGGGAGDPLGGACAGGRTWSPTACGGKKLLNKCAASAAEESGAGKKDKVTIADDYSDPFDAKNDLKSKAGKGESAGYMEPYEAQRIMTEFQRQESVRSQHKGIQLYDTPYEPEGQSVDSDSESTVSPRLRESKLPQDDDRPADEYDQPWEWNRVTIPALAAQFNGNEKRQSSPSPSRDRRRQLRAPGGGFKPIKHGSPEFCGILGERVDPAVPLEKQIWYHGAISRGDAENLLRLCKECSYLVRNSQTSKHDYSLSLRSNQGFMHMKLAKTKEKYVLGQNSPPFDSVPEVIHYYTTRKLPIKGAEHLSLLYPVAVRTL
To be noted: for remaining activity at 10 µM: read-out: percent of DMSO vehicle control.

Experiment [5] has as its target T5, TEC (Homo sapiens, UniProt P42680).
T5 construct: made in house; host or cells: HEK293 (transient transfection), unpurified extract
T5 sequence (P42680 1-631): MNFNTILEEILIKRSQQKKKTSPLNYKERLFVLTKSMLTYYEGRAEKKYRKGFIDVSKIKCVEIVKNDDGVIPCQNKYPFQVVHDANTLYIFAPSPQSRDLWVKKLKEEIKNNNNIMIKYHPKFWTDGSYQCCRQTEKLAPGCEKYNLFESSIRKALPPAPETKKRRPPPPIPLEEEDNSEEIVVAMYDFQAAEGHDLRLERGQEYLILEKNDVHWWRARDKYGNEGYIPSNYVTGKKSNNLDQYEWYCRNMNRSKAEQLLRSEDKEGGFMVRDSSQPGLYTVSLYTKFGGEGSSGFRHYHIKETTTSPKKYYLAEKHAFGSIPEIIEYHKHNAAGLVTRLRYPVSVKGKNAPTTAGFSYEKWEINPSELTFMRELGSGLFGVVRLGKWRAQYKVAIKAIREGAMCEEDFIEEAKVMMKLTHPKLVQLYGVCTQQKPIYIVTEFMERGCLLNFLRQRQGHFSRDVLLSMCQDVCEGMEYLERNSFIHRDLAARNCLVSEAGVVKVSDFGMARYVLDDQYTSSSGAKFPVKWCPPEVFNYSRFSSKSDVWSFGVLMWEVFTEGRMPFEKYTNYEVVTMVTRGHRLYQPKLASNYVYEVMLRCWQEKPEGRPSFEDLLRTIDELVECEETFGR
To be noted: for remaining activity at 10 µM: primary screen.

Experiment [6] deals with T6, PIK3R3(SH2dom.C-term.) (Homo sapiens, UniProt Q92569).
T6 construct: SH2dom.C-term. denotes SH2 domain closest to C-terminus of protein; made in house; host or cells: HEK293 (transient transfection, unpurified extract)
To be noted: for remaining activity at 10 µM: read-out: percent of DMSO vehicle control.

In experiment [7] the target is T7, GRB2 (Homo sapiens, UniProt P62993).
T7 construct: the DNA-tagged SH2 domain concentrations used in this study were <0.1 nM; made in house; host or cells: HEK293 (transient transfection; unpurified extract)
T7 sequence (P62993 60-152 limits assumed): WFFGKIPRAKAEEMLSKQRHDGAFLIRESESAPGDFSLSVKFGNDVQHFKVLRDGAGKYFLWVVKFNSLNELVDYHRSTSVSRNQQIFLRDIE
To be noted: for percent of DMSO vehicle control: primary screen, 10 μM.

Experiment [8] deals with T8, CRKL (Homo sapiens, UniProt P46109).
T8 construct: the DNA-tagged SH2 domain concentrations used in this study were <0.1 nM; made in house; host or cells: HEK293 (transient transfection; unpurified extract)
T8 sequence (P46109 14-102 limits assumed): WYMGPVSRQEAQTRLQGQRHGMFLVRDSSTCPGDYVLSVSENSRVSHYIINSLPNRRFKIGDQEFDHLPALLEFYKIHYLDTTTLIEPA
To be noted: read-out: percent of DMSO vehicle control; for remaining activity at 10 µM: primary screen.

The target of experiment [9] is T9, SRMS (Homo sapiens, UniProt Q9H3Y6).
T9 construct: made in house; host or cells: HEK293 (transient transfection), unpurified extract
T9 sequence (Q9H3Y6 whole entry): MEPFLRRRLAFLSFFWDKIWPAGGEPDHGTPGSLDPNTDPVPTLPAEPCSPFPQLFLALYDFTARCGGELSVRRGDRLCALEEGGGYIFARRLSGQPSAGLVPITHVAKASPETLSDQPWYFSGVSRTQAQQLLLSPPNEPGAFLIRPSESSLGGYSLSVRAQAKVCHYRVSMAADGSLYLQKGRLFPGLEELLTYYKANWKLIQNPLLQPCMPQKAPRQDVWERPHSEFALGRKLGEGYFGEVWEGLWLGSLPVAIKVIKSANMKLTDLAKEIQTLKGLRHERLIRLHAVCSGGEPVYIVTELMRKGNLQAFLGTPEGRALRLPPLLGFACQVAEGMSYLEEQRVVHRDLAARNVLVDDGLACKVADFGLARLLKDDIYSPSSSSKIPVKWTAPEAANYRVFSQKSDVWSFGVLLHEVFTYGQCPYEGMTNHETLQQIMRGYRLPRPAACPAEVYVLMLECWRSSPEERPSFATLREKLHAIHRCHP
To be noted: for remaining activity at 10 µM: read-out: percent of DMSO vehicle control; for KD: dose-response.

The target in experiment [10] is T10, BLNK (Homo sapiens, UniProt Q8WV28).
T10 construct: the DNA-tagged SH2 domain concentrations used in this study were <0.1 nM; made in house; host or cells: HEK293 (transient transfection; unpurified extract)
T10 sequence (Q8WV28 346-453 limits assumed): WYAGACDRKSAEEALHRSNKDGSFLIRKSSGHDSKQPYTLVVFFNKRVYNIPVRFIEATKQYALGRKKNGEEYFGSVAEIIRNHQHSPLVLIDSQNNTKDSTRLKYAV
To be noted: for remaining activity at 10 µM: read-out: percent of DMSO vehicle control.

Experiment [11] addresses T11, SOCS1 (Homo sapiens, UniProt O15524).
T11 construct: made in house; host or cells: HEK293 (transient transfection), unpurified extract
T11 sequence (O15524 1-211): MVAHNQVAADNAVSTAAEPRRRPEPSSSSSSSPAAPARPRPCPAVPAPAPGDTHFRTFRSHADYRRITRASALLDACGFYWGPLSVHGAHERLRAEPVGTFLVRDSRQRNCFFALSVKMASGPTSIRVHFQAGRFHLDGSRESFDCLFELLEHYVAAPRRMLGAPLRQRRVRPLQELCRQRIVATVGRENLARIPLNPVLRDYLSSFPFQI
To be noted: for remaining activity at 10 µM: read-out: percent of DMSO vehicle control.

Experiment [12] deals with T12, TNS1 (Homo sapiens, UniProt Q9HBL0).
T12 construct: made in house; host or cells: HEK293 (transient transfection), unpurified extract
T12 sequence (Q9HBL0 whole entry): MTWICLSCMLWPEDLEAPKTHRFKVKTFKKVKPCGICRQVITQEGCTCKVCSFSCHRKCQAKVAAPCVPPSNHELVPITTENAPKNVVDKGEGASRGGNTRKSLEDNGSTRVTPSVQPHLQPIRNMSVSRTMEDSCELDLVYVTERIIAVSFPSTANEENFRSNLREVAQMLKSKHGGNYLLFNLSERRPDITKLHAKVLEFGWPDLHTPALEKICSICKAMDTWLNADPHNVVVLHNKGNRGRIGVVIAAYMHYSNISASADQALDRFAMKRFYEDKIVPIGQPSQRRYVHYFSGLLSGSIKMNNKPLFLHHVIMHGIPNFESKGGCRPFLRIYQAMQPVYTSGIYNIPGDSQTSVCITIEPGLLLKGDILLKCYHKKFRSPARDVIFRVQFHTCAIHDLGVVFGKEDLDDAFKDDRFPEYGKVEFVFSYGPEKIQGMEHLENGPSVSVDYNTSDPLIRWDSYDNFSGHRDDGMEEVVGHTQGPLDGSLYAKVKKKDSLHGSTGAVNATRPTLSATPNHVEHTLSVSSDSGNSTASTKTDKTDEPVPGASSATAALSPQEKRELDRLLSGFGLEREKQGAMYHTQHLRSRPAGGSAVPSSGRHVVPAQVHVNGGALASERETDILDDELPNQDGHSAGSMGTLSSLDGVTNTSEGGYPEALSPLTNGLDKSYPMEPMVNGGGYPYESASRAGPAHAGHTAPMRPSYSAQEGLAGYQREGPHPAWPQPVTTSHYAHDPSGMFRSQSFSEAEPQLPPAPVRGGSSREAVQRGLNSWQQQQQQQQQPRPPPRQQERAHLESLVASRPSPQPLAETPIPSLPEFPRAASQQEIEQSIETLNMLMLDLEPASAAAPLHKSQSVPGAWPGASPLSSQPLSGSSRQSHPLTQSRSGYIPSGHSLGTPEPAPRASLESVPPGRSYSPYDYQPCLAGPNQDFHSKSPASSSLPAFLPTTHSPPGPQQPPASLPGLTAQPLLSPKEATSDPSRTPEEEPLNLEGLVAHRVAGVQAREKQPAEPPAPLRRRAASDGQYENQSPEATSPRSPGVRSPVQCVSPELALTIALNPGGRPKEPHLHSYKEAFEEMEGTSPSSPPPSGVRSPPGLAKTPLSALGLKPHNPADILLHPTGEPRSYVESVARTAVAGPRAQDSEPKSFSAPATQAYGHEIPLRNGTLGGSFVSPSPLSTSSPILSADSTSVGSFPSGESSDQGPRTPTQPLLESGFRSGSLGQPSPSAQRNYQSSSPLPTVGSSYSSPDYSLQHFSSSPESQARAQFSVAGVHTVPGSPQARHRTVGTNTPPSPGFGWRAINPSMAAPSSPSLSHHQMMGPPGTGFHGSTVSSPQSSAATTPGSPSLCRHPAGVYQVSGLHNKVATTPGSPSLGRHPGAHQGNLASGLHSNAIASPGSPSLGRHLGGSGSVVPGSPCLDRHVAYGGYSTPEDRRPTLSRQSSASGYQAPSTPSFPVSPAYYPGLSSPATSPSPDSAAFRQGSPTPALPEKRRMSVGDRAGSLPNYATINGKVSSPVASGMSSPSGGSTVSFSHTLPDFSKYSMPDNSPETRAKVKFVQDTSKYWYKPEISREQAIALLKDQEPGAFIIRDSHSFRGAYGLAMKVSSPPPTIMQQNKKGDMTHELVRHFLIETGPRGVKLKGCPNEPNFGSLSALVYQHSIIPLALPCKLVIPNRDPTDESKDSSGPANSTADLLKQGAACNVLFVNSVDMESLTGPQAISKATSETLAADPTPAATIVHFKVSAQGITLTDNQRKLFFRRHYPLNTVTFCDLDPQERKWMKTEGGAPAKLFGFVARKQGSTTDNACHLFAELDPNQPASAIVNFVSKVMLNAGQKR
To be noted: for remaining activity at 10 µM: primary screen.

Setting [13] is: read-out: percent of DMSO vehicle control.

Where two headings read alike, the source gives them in different places. Non-standard residues stand in square brackets, D forms with d. Residues, ends and D or L forms follow the SMILES beside them. *: point of attachment. pY = N[C@@H](Cc1ccc(OP(=O)(O)O)cc1)C(=O)O; Caffeoyl = O=C(/C=C/c1ccc(O)c(O)c1)*

The Kd is the free concentration of one partner at which half of the binding sites on the other are occupied at equilibrium, for simple one-to-one binding. Take `CC[C@H](C)[C@H](NC(=O)[C@H](CCC(=O)O)NC(=O)[C@H](CCC(=O)O)NC(=O)[C@H](Cc1ccc(OP(=O)(O)O)cc1)NC(=O)/C=C/c1ccc(O)c(O)c1)C(=O)N[C@@H](CCC(=O)O)C(=O)O` [Caffeic acid-pYEEIE] (Caffeoyl-[pY]EEIE-OH): the percent of DMSO vehicle control at 10 µM in experiment [1] (setting [13]) turned out to be 94.8%; in [5] (setting [13]), 0.1%; in experiment [8], 42.1 ± 6%; in experiment [12] (setting [13]), 25.5 ± 1.1%. Also, the Kd in experiment [2] is 27200 ± 8880 nM; in experiment [4], 1200 ± 530 nM; in [5] it was 39 ± 7.8 nM; in [6], 230 ± 180 nM; in [9], 1.2 ± 0.73 nM; in [10] it was 240 ± 24 nM. Moreover, the dissociation constant Kd in experiment [11] was determined as 30 ± 6.5 nM; in [12] it was 3800 ± 610 nM. Further, the remaining activity at 10 µM in experiment [2] worked out at 50.6 ± 4.3%; in experiment [3], 0.3 ± 0.9%; in experiment [4], 1.8 ± 0.1%; in experiment [6], 0.8 ± 0.1%; in [9], 0.1%; in [10], 3.2 ± 0.6%. For the same compound, in experiment [11], the remaining activity at 10 µM came to 1.1 ± 0.1%. In experiment [3] (dose-response), the KD entry is “No Hit”. Further, the “percent of DMSO vehicle control” value in [7] was 73.4±9.2%.

For `O=C(COc1ccc2cc(C(=O)Nc3ccccc3)ccc2c1)NCc1ccc(OP(=O)(O)O)c(OP(=O)(O)O)c1` [Stafib-1], the remaining activity at 10 µM in experiment [1] (setting [13]) is 51.9 ± 12.6%; in experiment [2] (primary screen, 10 μM), 79.7 ± 9.4%; in experiment [3] (primary screen, 10 μM) it was 84.2 ± 34.7%; in experiment [4] (primary screen, 10 μM) it was 114%; in [5] (setting [13]) it was 159%; in experiment [6] (primary screen, 10 μM), 86.5%. In addition, the remaining activity at 10 µM was 120% in [8]; 8.9 ± 56.2% in experiment [9] (primary screen, 10 μM); 158% in experiment [10] (primary screen, 10 μM); 156% in [11] (primary screen, 10 μM); 132% in experiment [12] (setting [13]). The “percent of DMSO vehicle control” value in [7] stood at 79.5±8.8%. Also, the KD entry in [9] was “No Hit”.

Regarding `C/C(=C\C(=O)N[C@H](C(=O)N1CCC[C@H]1C(=O)N(c1ccccc1)c1ccc(I)cc1)C(C)(C)C)c1ccc(OP(=O)(O)O)cc1` [STAT6-IN-1], the Kd was 2400 nM in [1] (dose-response, read-out: KD); 1000 ± 78 nM in [3] (dose-response, read-out: KD); 780 ± 42 nM in experiment [6] (dose-response, read-out: KD); 6040 ± 1400 nM in experiment [7] (dose-response, read-out: KD). The remaining activity at 10 µM in experiment [1] (setting [13]) stood at 9.6 ± 0.1%; in experiment [2] (primary screen, 10 μM), 43.6 ± 7.2%; in experiment [3] (primary screen, 10 μM) it was 0.2 ± 0.1%; in [4] (primary screen, 10 μM), 28.7 ± 0.4%; in experiment [5] (setting [13]) it was 75.1 ± 3.7%; in experiment [6] (primary screen, 10 μM), 1 ± 0.1%. Besides, the remaining activity at 10 µM in experiment [8] came out at 42.4 ± 0.9%; in experiment [9] (primary screen, 10 μM), 7.6 ± 0.5%; in [10] (primary screen, 10 μM), 116 ± 19.9%; in [11] (primary screen, 10 μM), 98.5 ± 3.5%; in experiment [12] (setting [13]), 87.6 ± 10%. Besides, the KD entry in [4] (dose-response) and in experiment [9] was “No Hit” each time.

Values taken from paper PMC12951562, “SH2scan: Mapping SH2 Domain-Ligand Binding Selectivity for Inhibitors and Degraders” (Journal of Medicinal Chemistry, 2026).
